Values of other authors as cited in article PMC10080691, “Enzyme-Responsive Double-Locked Photodynamic Molecular Beacon for Targeted Photodynamic Anticancer Therapy” (Journal of the American Chemical Society, 2023).

Columns and labels:
[1] = in DMF; reference standard value; cited from earlier work
From the text: The electronic absorption and fluorescence spectra of PMB 1 were first recorded in DMF and compared with those of the components 8 and 11, as well as the non-cleavable analogue 14 (Figure S2 and Table 1). […] In ...

[2] = in DMF; reference standard value; cited from earlier work; remark: listed apart in the source
From the text: The singlet oxygen generation efficiency of 1 was then studied and compared with that of 8, 14, and ZnPc in all these media using 1,3-diphenylisobenzofuran (DPBF) as the singlet oxygen probe.[67] The absorbance of DPBF’s absorption at 415 nm (in DMF) or 417 nm (in PBS and the buffer) was monitored during light irradiation (λ > 610 nm). Figures S4–S6 show the changes in the absorption spectra of the mixtures in DMF, PBS, and the buffer, respectively, upon irradiation. It can be seen that in all these media while 8 and ZnPc could effectively sensitize the formation of singlet oxygen to induce su ...

[Zn+2].c1ccc2c(c1)-c1nc-2nc2[n-]c(nc3nc([n-]c4nc(n1)-c1ccccc1-4)-c1ccccc1-3)c1ccccc21 [ZnPc, zinc(II) phthalocyanine]
ΦF (fluorescence quantum yield) of reference [1]: 0.28 | ΦΔ (singlet oxygen quantum yield) of reference [2]: 0.56
